The values that follow come from ChEMBL document CHEMBL4699645 (2020).

The species named for one experiment is Rattus norvegicus. Kind of experiment: Selectivity index, ratio of IC50 for rat alpha3beta4 nAChR expressed in Xenopus laevis oocytes to IC50 for rat alpha3beta2 nAChR expressed in Xenopus laevis oocytes. The format is cell-based.
Experiment [1] addresses Neuronal acetylcholine receptor; alpha3/beta2 (Rattus norvegicus, UniProt P04757+P12390). Kind of experiment: Antagonist activity at rat alpha3beta2 nAChR expressed in Xenopus laevis oocytes assessed as inhibition of Ach-induced response at -70 mV holding potential incubated for 5 mins by voltage-clamp assay. The format is cell-based, Oocyte.
The target of experiment [2] is Neuronal acetylcholine receptor; alpha3/beta4 (Rattus norvegicus, UniProt P04757+P12392). Kind of experiment: Antagonist activity at rat alpha3beta4 nAChR expressed in Xenopus laevis oocytes assessed as inhibition of Ach-induced response at -70 mV holding potential incubated for 5 mins by voltage-clamp assay. The format is cell-based, Oocyte.
The test system of another experiment is Hi-5. Kind of experiment: Displacement of [125I]-alpha-bungarotoxin from Aplysia californica C-terminal His6-tagged N-terminal gp67 signal peptide-tagged acetylcholine receptor binding protein expressed in Hi5 insect cells preincubated for 3 hrs followed by [125I]-alpha-bungarotoxin measured after 5 mins by radioligand binding assay relative to LvIA IC50. The following applies: time 185.0 min. (In general: Loss of bound radioactivity is the signal in a displacement assay; it reports binding, not function.)

The nature of experiment [3]: Displacement of [125I]-alpha-bungarotoxin from Aplysia californica C-terminal His6-tagged N-terminal gp67 signal peptide-tagged acetylcholine receptor binding protein expressed in Hi5 insect cells preincubated for 3 hrs followed by [125I]-alpha-bungarotoxin measured after 5 mins by radioligand binding assay.
The target in experiment [4] is Neuronal acetylcholine receptor; alpha3/beta4 (Rattus norvegicus) (UniProt P04757+P12392). The experiment in a line: Antagonist activity at rat alpha3beta4 nAChR expressed in Xenopus laevis oocytes assessed as inhibition of Ach-induced response at -70 mV holding potential incubated for 5 mins by voltage-clamp assay relative to LvIA IC50. The format is cell-based. The following applies: Oocyte.

Experiment [5] addresses Neuronal acetylcholine receptor; alpha3/beta2 (Rattus norvegicus) (UniProt P04757+P12390). The experiment in a line: Antagonist activity at rat alpha3beta2 nAChR expressed in Xenopus laevis oocytes assessed as inhibition of Ach-induced response at -70 mV holding potential incubated for 5 mins by voltage-clamp assay relative to LvIA IC50. The format is cell-based. To be noted: Oocyte.

Where a SMILES comes first, the peptide text is derived from it. Bridges are numbered along the chain shown (N, C = ends).

Sequence of Neuronal acetylcholine receptor; alpha3/beta2 (P04757 whole entry): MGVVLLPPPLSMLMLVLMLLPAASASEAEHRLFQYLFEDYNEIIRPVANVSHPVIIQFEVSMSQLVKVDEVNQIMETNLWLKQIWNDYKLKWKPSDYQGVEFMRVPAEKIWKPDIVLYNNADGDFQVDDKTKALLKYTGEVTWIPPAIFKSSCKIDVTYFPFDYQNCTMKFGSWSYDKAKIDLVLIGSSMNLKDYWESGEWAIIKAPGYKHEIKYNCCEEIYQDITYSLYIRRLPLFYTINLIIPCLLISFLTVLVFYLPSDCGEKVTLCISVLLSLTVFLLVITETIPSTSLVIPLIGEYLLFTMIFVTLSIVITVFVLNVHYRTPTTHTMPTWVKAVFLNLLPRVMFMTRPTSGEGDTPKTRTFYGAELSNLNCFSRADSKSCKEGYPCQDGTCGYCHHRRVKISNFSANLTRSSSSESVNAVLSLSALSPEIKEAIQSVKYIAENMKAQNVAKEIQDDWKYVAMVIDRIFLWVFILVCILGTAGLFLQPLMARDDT
Sequence of Neuronal acetylcholine receptor; alpha3/beta2 (P12390 whole entry): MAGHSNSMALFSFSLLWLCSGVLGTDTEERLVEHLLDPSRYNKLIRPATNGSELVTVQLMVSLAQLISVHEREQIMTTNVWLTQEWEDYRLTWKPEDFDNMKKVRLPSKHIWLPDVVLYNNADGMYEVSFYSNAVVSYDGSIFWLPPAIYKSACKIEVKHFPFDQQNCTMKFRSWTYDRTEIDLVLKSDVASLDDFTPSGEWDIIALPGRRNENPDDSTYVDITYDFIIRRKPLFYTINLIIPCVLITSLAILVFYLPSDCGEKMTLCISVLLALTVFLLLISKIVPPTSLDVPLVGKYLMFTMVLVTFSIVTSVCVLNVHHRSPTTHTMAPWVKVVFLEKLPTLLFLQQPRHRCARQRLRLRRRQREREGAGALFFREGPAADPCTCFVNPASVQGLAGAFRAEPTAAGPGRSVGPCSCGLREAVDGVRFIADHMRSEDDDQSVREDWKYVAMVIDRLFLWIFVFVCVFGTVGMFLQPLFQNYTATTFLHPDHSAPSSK
Sequence of Neuronal acetylcholine receptor; alpha3/beta4 (P04757 whole entry): as the sequence (P04757 whole entry) above
Sequence of Neuronal acetylcholine receptor; alpha3/beta4 (P12392 whole entry): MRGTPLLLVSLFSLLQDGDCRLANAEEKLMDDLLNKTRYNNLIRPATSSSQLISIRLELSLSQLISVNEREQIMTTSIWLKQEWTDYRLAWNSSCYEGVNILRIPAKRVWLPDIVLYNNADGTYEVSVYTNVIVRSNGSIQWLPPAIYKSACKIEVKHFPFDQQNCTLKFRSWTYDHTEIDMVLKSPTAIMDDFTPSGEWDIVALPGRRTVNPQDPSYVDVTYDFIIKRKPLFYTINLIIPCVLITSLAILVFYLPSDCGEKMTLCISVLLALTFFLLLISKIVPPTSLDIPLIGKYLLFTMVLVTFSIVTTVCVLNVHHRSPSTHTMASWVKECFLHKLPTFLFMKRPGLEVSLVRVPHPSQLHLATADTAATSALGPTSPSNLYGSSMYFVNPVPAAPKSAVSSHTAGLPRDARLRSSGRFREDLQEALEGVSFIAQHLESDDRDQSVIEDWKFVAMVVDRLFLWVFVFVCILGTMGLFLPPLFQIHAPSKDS

Take `CC[C@H](C)[C@@H]1NC(=O)[C@H](CCC(=O)O)NC(=O)[C@@H]2CCCN2C(=O)[C@H](Cc2cnc[nH]2)NC(=O)[C@H](CC(=O)O)NC(=O)[C@H](C(C)C)NC(=O)[C@H](CCCCN)NC(=O)[C@@H]2CSSC[C@H](NC(=O)CN)C(=O)N[C@@H](CSSC[C@@H](C(N)=O)NC1=O)C(=O)N[C@@H](CO)C(=O)N[C@@H](Cc1cnc[nH]1)C(=O)N1CCC[C@H]1C(=O)N[C@@H](C)C(=O)N2` (H-GCCSHPACKVDHPEIC-NH2; disulfide 2-8, 3-16): the Ratio IC50 in the experiment filed under Rattus norvegicus was 544. Besides, the IC50 (commonly the concentration needed to halve the response being measured) turned out to be 3.8 nM in experiment [1] and 2070 nM in experiment [2].
With `CC[C@H](C)[C@@H]1NC(=O)[C@H](C)NC(=O)[C@@H]2CCCN2C(=O)[C@H](Cc2cnc[nH]2)NC(=O)[C@H](CC(=O)O)NC(=O)[C@H](C(C)C)NC(=O)[C@H](CC(N)=O)NC(=O)[C@@H]2CSSC[C@H](NC(=O)CN)C(=O)N[C@@H](CSSC[C@@H](C(N)=O)NC1=O)C(=O)N[C@@H](CO)C(=O)N[C@@H](Cc1cnc[nH]1)C(=O)N1CCC[C@H]1C(=O)N[C@@H](C)C(=O)N2` (H-GCCSHPACNVDHPAIC-NH2; disulfide 2-8, 3-16), the Ratio IC50 in the experiment with Hi-5 was -0.48; in the experiment listed under Rattus norvegicus, 6.2; in experiment [4] it was 0.6; in experiment [5] it was 1.9. Moreover, the IC50 is 760 nM in experiment [3], 29 nM in experiment [1] and 181 nM in experiment [2].
Take `CC(C)[C@@H]1NC(=O)[C@H](CC(N)=O)NC(=O)[C@@H]2CSSC[C@H](NC(=O)CN)C(=O)N[C@@H](CSSC[C@@H](C(N)=O)NC(=O)[C@H](C)NC(=O)[C@H](CCC(=O)O)NC(=O)[C@@H]3CCCN3C(=O)[C@H](Cc3cnc[nH]3)NC(=O)[C@H](CC(=O)O)NC1=O)C(=O)N[C@@H](CO)C(=O)N[C@@H](Cc1cnc[nH]1)C(=O)N1CCC[C@H]1C(=O)N[C@@H](C)C(=O)N2` (H-GCCSHPACNVDHPEAC-NH2; disulfide 2-8, 3-16): the Ratio IC50 worked out at 1.02 in the experiment with Hi-5, 1.3 in the experiment filed under Rattus norvegicus, 4.8 in experiment [4] and 69 in experiment [5]. Also, the concentration for half-maximal inhibition (IC50) in experiment [3] is 24000 nM; in experiment [1], 1080 nM; in experiment [2] it was 1400 nM.
Take `CC[C@H](C)[C@@H]1NC(=O)[C@H](CCC(=O)O)NC(=O)[C@@H]2CCCN2C(=O)[C@H](Cc2cnc[nH]2)NC(=O)[C@H](CC(=O)O)NC(=O)[C@H](C(C)C)NC(=O)[C@H](CC(C)C)NC(=O)[C@@H]2CSSC[C@H](NC(=O)CN)C(=O)N[C@@H](CSSC[C@@H](C(N)=O)NC1=O)C(=O)N[C@@H](CO)C(=O)N[C@@H](Cc1cnc[nH]1)C(=O)N1CCC[C@H]1C(=O)N[C@@H](C)C(=O)N2` (H-GCCSHPACLVDHPEIC-NH2; disulfide 2-8, 3-16): the Ratio IC50 in the experiment filed under Rattus norvegicus worked out at 102. Further, the values for the IC50 in experiment [1] and in experiment [2] were 3.2 nM and 325 nM, respectively.
Regarding `CC[C@H](C)[C@@H]1NC(=O)[C@H](CCC(=O)O)NC(=O)[C@@H]2CCCN2C(=O)[C@H](Cc2cnc[nH]2)NC(=O)[C@H](CC(=O)O)NC(=O)[C@H](C(C)C)NC(=O)[C@H](CC(=O)O)NC(=O)[C@@H]2CSSC[C@H](NC(=O)CN)C(=O)N[C@@H](CSSC[C@@H](C(N)=O)NC1=O)C(=O)N[C@@H](CO)C(=O)N[C@@H](Cc1cnc[nH]1)C(=O)N1CCC[C@H]1C(=O)N[C@@H](C)C(=O)N2` (H-GCCSHPACDVDHPEIC-NH2; disulfide 2-8, 3-16), the IC50 in experiment [1] and in experiment [2] was more than 10000 nM each time. The Ratio IC50 was found to be 7.1 in experiment [4] and 0.24 in experiment [5].
As to `CC[C@H](C)[C@@H]1NC(=O)[C@H](CCC(=O)O)NC(=O)[C@@H]2CCCN2C(=O)[C@H](Cc2cnc[nH]2)NC(=O)[C@H](CC(=O)O)NC(=O)[C@H](C)NC(=O)[C@H](CC(N)=O)NC(=O)[C@@H]2CSSC[C@H](NC(=O)CN)C(=O)N[C@@H](CSSC[C@@H](C(N)=O)NC1=O)C(=O)N[C@@H](CO)C(=O)N[C@@H](Cc1cnc[nH]1)C(=O)N1CCC[C@H]1C(=O)N[C@@H](C)C(=O)N2` (H-GCCSHPACNADHPEIC-NH2; disulfide 2-8, 3-16), the Ratio IC50 turned out to be 0.036 with Hi-5, 4.4 in the experiment listed under Rattus norvegicus, 1.1 in experiment [4] and 4.5 in experiment [5]. The IC50 in experiment [3] is 2500 nM; in experiment [1], 71 nM; in experiment [2], 309 nM.
For the compound `CC[C@H](C)[C@@H]1NC(=O)[C@H](CCC(=O)O)NC(=O)[C@@H]2CCCN2C(=O)[C@H](Cc2cnc[nH]2)NC(=O)[C@H](CC(=O)O)NC(=O)[C@H](C(C)C)NC(=O)[C@H](CC(N)=O)NC(=O)[C@@H]2CSSC[C@H](NC(=O)CN)C(=O)N[C@@H](CSSC[C@@H](C(N)=O)NC1=O)C(=O)N[C@@H](CO)C(=O)N[C@@H](C)C(=O)N1CCC[C@H]1C(=O)N[C@@H](C)C(=O)N2` (H-GCCSAPACNVDHPEIC-NH2; disulfide 2-8, 3-16), in the experiment with Hi-5, the Ratio IC50 is 2.13. Further, the IC50 in experiment [3] was 310000 nM; in experiment [1], more than 10000 nM; in experiment [2] it was more than 10000 nM.
With `CC[C@H](C)[C@@H]1NC(=O)[C@H](CCC(=O)O)NC(=O)[C@@H]2CCCN2C(=O)[C@H](Cc2cnc[nH]2)NC(=O)[C@H](CC(=O)O)NC(=O)[C@H](C(C)C)NC(=O)[C@H](CC(N)=O)NC(=O)[C@@H]2CSSC[C@H](NC(=O)CN)C(=O)N[C@@H](CSSC[C@@H](C(N)=O)NC1=O)C(=O)N[C@@H](CO)C(=O)N[C@@H](Cc1cnc[nH]1)C(=O)N[C@@H](C)C(=O)N[C@@H](C)C(=O)N2` (H-GCCSHAACNVDHPEIC-NH2; disulfide 2-8, 3-16), the Ratio IC50 in the experiment on Hi-5 worked out at 1.17. Besides, the IC50 is 34000 nM in experiment [3], more than 10000 nM in experiment [1] and more than 10000 nM in experiment [2].
Regarding `CC[C@H](C)[C@@H]1NC(=O)[C@H](CCC(=O)O)NC(=O)[C@@H]2CCCN2C(=O)[C@H](Cc2cnc[nH]2)NC(=O)[C@H](CC(=O)O)NC(=O)[C@H](C(C)C)NC(=O)[C@H]([C@@H](C)CC)NC(=O)[C@@H]2CSSC[C@H](NC(=O)CN)C(=O)N[C@@H](CSSC[C@@H](C(N)=O)NC1=O)C(=O)N[C@@H](CO)C(=O)N[C@@H](Cc1cnc[nH]1)C(=O)N1CCC[C@H]1C(=O)N[C@@H](C)C(=O)N2` (H-GCCSHPACIVDHPEIC-NH2; disulfide 2-8, 3-16), the results for the Ratio IC50 (in the experiment listed under Rattus norvegicus; in experiment [4]; in experiment [5]) were 742, 1.1 and 0.21, respectively. In addition, the IC50 in experiment [1] was determined as 7.5 nM; in experiment [2], 5560 nM.
With `CC[C@H](C)[C@@H]1NC(=O)[C@H](CCC(=O)O)NC(=O)[C@@H]2CCCN2C(=O)[C@H](Cc2cnc[nH]2)NC(=O)[C@H](CC(=O)O)NC(=O)[C@H](C(C)C)NC(=O)CNC(=O)[C@@H]2CSSC[C@H](NC(=O)CN)C(=O)N[C@@H](CSSC[C@@H](C(N)=O)NC1=O)C(=O)N[C@@H](CO)C(=O)N[C@@H](Cc1cnc[nH]1)C(=O)N1CCC[C@H]1C(=O)N[C@@H](C)C(=O)N2` (H-GCCSHPACGVDHPEIC-NH2; disulfide 2-8, 3-16), the IC50 in experiment [1] and in experiment [2] was more than 10000 nM in each case. Also, the Ratio IC50 stood at 19.2 in experiment [4] and 0.48 in experiment [5].
Take `CC[C@H](C)[C@@H]1NC(=O)[C@H](CCC(=O)O)NC(=O)[C@@H]2CCCN2C(=O)[C@H](C)NC(=O)[C@H](CC(=O)O)NC(=O)[C@H](C(C)C)NC(=O)[C@H](CC(N)=O)NC(=O)[C@@H]2CSSC[C@H](NC(=O)CN)C(=O)N[C@@H](CSSC[C@@H](C(N)=O)NC1=O)C(=O)N[C@@H](CO)C(=O)N[C@@H](Cc1cnc[nH]1)C(=O)N1CCC[C@H]1C(=O)N[C@@H](C)C(=O)N2` (H-GCCSHPACNVDAPEIC-NH2; disulfide 2-8, 3-16): the Ratio IC50 with Hi-5 was 2.46. Moreover, the IC50 in experiment [3] is 670000 nM; in experiment [1], more than 10000 nM; in experiment [2] it was more than 10000 nM.
